Experimental data as given in US20100210836A1, “SMALL MOLECULE INHIBITORS OF LYMPHOID TYROSINE PHOSPHATASE” (University of Southern California, priority 2009, published 2010).
Read-outs that look alike come from different tables or passages of the source.

What was measured:
[1] = target: T1, CD45 (Homo sapiens, UniProt P08575); test: Counter-screen phosphatase assay CD45; type: biochemical; conditions: Table II
T1 construct: The catalytic domain of CD45 was purchased from Biomol Inc; purchased Biomol Inc
T1 sequence (P08575 653-912 limits assumed): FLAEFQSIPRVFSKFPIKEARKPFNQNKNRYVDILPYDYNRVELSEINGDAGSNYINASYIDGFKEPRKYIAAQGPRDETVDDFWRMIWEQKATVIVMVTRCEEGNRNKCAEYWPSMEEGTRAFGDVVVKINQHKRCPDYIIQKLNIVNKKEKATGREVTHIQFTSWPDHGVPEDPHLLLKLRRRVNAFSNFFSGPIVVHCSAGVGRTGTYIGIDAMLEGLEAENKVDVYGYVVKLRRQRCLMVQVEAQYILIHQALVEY
Description: Materials, chemicals and enzymes. All chemicals were purchased from commercial sources unless otherwise noted. Compounds were dissolved in DMSO, and stock solutions were stored at −20° C. The catalytic domain of CD45 was purchased from Biomol Inc.

[2] = target: T2, HePTP (Homo sapiens, UniProt P35236); test: biochemical
T2 sequence (P35236 65-360): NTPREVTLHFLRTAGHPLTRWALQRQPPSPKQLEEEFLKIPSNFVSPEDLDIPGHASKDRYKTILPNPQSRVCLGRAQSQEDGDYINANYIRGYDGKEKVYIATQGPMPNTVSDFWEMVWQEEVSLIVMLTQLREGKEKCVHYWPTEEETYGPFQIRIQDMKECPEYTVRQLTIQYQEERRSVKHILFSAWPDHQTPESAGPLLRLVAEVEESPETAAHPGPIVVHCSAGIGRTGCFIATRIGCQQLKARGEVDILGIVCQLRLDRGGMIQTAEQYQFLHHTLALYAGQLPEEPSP

[3] = target: T3, LMPTP-A (Homo sapiens, UniProt P24666); test: biochemical
T3 sequence (P24666 1-158): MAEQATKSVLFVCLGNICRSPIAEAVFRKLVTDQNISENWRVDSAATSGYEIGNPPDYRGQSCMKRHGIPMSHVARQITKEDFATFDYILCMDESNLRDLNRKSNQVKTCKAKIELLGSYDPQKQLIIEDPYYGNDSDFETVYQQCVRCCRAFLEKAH

[4] = system: phosphorylation of ZAP-70; test: Anti-pZAP (Tyr319) blot of JTAg cells; conditions: 50 μM, 1 h
Description: (§1) The volume of DMSO added was held constant at less than 2% of the total volume. JTAg cells pre-incubated with DMSO or inhibitor were divided into 400 μL aliquots containing 10×10^6 cells and stimulated with supernatants of C305 hybridoma (31) for 2 min or left untreated. […] The total protein concentration in each cell lysate was determined by the Bradford protein assay (Bio-Rad) in order to normalize the amount of protein used in SDS-PAGE.
(§2) Aliquots of lysates were suspended in SDS sample buffer, heated at 95° C. for 5 minutes and the boiled samples run on 10% SDS-polyacrylamide gels. Proteins resolved by gel electrophoresis were transferred onto nitrocellulose membranes (Hybond ECL, GE Healthcare), using appropriate dilutions of unconjugated primary antibodies followed by HRP-conjugated secondary antibodies (purchased from GE Healthcare). Blots were developed with the enhanced chemiluminescence detection system, ECL-Plus, following manufacturers directions.

[5] = system: phosphorylation of Lck at Tyr394; test: Anti-pSrc (Tyr416) immunoblot of thymocytes from PTPN22-/- mice; conditions: 50 μM, 1 h, anti-CD3/anti-CD4 plus streptavidin
Description: (§3) The volume of DMSO added was held constant at less than 2% of the total volume. Thymocytes pre-incubated with DMSO or inhibitor were divided into 200 μL aliquots containing 10×10^6 cells, treated with biotinylated CD3 and CD4 antibodies for 30 min and stimulated with the crosslinker, streptavidin for 1.5 min, or left untreated.
as §2
(§4) In parallel, the compound was also tested on T cells from normal PTPN22+/+ mice.

[6] = system: phosphorylation of Lck at Tyr394; test: Anti-pSrc (Tyr416) immunoblot of thymocytes from PTPN22+/+ mice; conditions: 50 μM, 1 h, anti-CD3/anti-CD4 plus streptavidin
Description: as §3, §2, §4

[7] = system: ERK1/2 phosphorylation; test: Anti-pERK1/2 blot of JTAg cells; conditions: 50 μM, 1 h
Description: as §1, §2

[8] = system: TCR-induced phosphorylation of SLP-76; test: Phospho-flow cytometry of JTAg cells, anti-pSLP76 (Tyr128); conditions: 50 μM, 1 h, compared to control
Description: Phosphoflow cytometry. Phospho-flow cytometry was performed on JTAg cells following published protocols (BD Biosciences). […] Cell fluorescence was assessed on a Cytomics FC500 cytometer (Beckman Coulter) at the USC Immune Monitoring Core. Data Analysis and graph preparation were carried using FlowJo (Tree Star, Inc., Ashland, Oreg.).

[9] = target: T4, LYP/PTPN22 (Homo sapiens, UniProt Q9Y2R2); test: biochemical
T4 construct: catalytic domains of LYP (aa 2-309) and PTP-PEST (aa 2-323, PEST); 6xHis (N, cleaved yes); made in house; host or cells: E. coli BL21
T4 sequence (Q9Y2R2 2-309): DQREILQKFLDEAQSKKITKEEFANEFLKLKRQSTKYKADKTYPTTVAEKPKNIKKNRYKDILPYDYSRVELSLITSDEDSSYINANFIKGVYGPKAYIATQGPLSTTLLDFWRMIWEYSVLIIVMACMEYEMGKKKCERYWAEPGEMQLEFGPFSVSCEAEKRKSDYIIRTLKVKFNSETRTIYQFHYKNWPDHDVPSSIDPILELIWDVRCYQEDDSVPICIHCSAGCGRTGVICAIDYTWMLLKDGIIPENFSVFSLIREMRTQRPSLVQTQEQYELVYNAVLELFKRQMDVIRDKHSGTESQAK
Description: Chemical Library Screening for LYP Inhibitors. A library consisting of a highly diverse set of 4,000 compounds was screened in a 96-well format in an assay specific for LYP activity. […] The reaction mixture with the compounds was incubated for 25 min at 37° C. […] All assays were done in triplicate. The IC50 values were then determined for each drug from a plot of log [drug concentration] versus percentage of enzyme inhibition. Absorbance data were measured using a Molecular Devices Emax Precision Microplate reader.
Identification of Compounds as LYP Inhibitors. We initially screened a library of 4000 drug-like small-molecule compounds against LYP/PTPN22, using p-nitrophenyl phosphate (pNPP) as a substrate. The ability of the library members to inhibit LYP/PTPN22 catalyzed hydrolysis of pNPP was measured in a buffer containing 50 mM Bis-Tris pH 6.0, 1 mM DTT at 37° C.

[10] = target: T5, PTP-PEST (Homo sapiens, UniProt Q05209); test: Counter-screen phosphatase assay PTP-PEST; type: biochemical
T5 sequence (Q05209 2-323): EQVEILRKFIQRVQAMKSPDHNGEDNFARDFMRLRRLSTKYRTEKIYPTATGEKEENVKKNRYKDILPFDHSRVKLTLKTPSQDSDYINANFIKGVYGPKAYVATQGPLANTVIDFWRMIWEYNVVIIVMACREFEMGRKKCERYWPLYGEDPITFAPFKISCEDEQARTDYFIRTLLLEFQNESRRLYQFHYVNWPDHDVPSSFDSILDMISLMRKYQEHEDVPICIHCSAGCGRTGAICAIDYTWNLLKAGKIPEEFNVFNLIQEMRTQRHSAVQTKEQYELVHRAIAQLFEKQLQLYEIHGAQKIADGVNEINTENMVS

[11] = LYP IC50, Table IV, analogues of E3P13
[12] = selectivity, ratio PEST IC50 / LYP IC50, Table IV

SMILES | IC50 [9, 11] | PEST_LYP [9, 12] | IC50 ([10]; read-out: PEST IC50) | PEST_LYP [9] | IC50 ([9]; LYP IC50) | further results
O=C(CSc1nc(C2CC2)nc2sc3c(c12)CCCC3)NCc1ccc2c(c1)OCO2 [G8P15] |  |  |  |  |  | IC50 [1]: > 90 µM; IC50 [2]: > 40 µM; IC50 [3]: > 90 µM
Cc1ccc2[nH]c(=O)c(C(c3nnnn3C3CCCC3)N3CCCC4(CCCCC4)C3)cc2c1 (racemic) [E3P13] |  |  |  |  |  | TCR-stimulated phosphorylation of ZAP-70 (Tyr319) [4]: increased TCR-stimulated phosphorylation of ZAP-70; phosphorylation of Lck at Tyr394 [5]: no effect; Lck phosphorylation at Tyr394 [6]: increased Lck phosphorylation at Tyr394; ERK1/2 phosphorylation [7]: increased ERK1/2 phosphorylation; TCR-induced SLP-76 phosphorylation [8]: higher levels of TCR-induced SLP-76 phosphorylation
Cc1cc(C)c2cc([C@H](c3nnnn3C3CCCC3)N3CCC[C@@H](C)C3)c(=O)[nH]c2c1 [compound 40] | 30.6 µM | 1.12 | 34.4 µM |  |  | 
CCC(C)(C)n1nnnc1[C@@H](c1cc2cccc(C)c2[nH]c1=O)N1CCCC2(CCCCC2)C1 [compound 18] | 13.4 µM | 0.96 | 12.9 µM |  |  | 
Cc1ccc2[nH]c(=O)c([C@H](c3nnnn3C3CCCC3)N3CCN(c4ccccc4F)CC3)cc2c1 [compound 36] |  |  | 23.2 µM | 0.92 |  | 
Cc1ccc2cc([C@H](c3nnnn3Cc3ccccc3)N3CCCC4(CCCCC4)C3)c(=O)[nH]c2c1C [compound 25] | 18.1 µM | 0.99 | 17.8 µM |  |  | 
Cc1ccc2[nH]c(=O)c(C(c3nnnn3C3CCCC3)N3CCN(C(c4ccccc4)c4ccccc4)CC3)cc2c1 (stereo not shown) [compound 3] |  |  | 8.71 µM | 1.38 | 6.3 µM | 
Cc1cccc2cc(C(c3nnnn3C3CCCC3)N3CCN(C(c4ccccc4)c4ccccc4)CC3)c(=O)[nH]c12 (stereo not shown) [compound 17] |  |  | 10.1 µM | 0.76 | 13.3 µM | 
Cc1ccc2[nH]c(=O)c([C@H](c3nnnn3C3CCCC3)N3CCN(c4ccccc4)CC3)cc2c1 [compound 47] |  |  | 32.5 µM | 0.89 | 36.5 µM | 
CCC(C)(C)n1nnnc1[C@@H](c1cc2ccc(OC)cc2[nH]c1=O)N1CCCC2(CCCCC2)C1 [compound 35] | 22.5 µM | 1.33 | 29.9 µM |  |  | 
Cc1cc(C)c2cc([C@H](c3nnnn3C(C)(C)C)N3CCCC4(CCCCC4)C3)c(=O)[nH]c2c1 [compound 28] | 19.7 µM | 1.33 | 26.1 µM |  |  | 
Cc1ccc2cc(C(c3nnnn3C3CCCC3)N3CCN(C(c4ccccc4)c4ccccc4)CC3)c(=O)[nH]c2c1C (stereo not shown) [compound 6] |  |  | 9.8 µM | 1.07 | 9.13 µM | 
Cc1cc(C)c2[nH]c(=O)c([C@H](c3nnnn3C(C)(C)C)N3CCCC4(CCCCC4)C3)cc2c1 [compound 19] | 13.6 µM | 2.27 | 30.8 µM |  |  | 
Cc1cccc2cc([C@H](c3nnnn3Cc3ccccc3)N3CCCC4(CCCCC4)C3)c(=O)[nH]c12 [compound 31] | 20.4 µM | 1.46 | 29.8 µM |  |  | 
Cc1cc(C)c2[nH]c(=O)c(C(c3nnnn3C3CCCC3)N3CCCC4(CCCCC4)C3)cc2c1 (stereo not shown) [compound 30] |  |  | 31.1 µM | 1.53 | 20.4 µM | 
Cc1cc(C)c2[nH]c(=O)c(C(c3nnnn3C3CCCC3)N3CCN(C(c4ccccc4)c4ccccc4)CC3)cc2c1 (stereo not shown) [compound 8] |  |  | 9.57 µM | 0.98 | 9.72 µM | 
COc1ccc(-n2ncc3c(SCC(=O)N4c5ccccc5CC4C)ncnc32)cc1 (racemic) [B11P32] |  |  |  |  |  | IC50 [1]: > 90 µM; IC50 ([10]; Table II, read-out: PTP-PEST IC50): > 40 µM; IC50 [3]: > 90 µM
Cc1ccc2cc([C@H](c3nnnn3C3CCCC3)N3CCN(c4ccccc4)CC3)c(=O)[nH]c2c1 [compound 41] | 31 µM | ~1.18 | ~36.5 µM |  |  | 
Cc1ccc2[nH]c(=O)c([C@H](c3nnnn3C3CCCC3)N3CCC(C)CC3)cc2c1 [compound 32] |  |  | 31.3 µM | 1.52 | 20.6 µM | 
Cc1ccc2cc([C@H](c3nnnn3CC3CCCC3)N3CCCC4(CCCCC4)C3)c(=O)[nH]c2c1 [compound 23] | 17.1 µM | 2.22 | 38 µM |  |  | 
Cc1cc(C)c2[nH]c(=O)c([C@H](c3nnnn3C3CCCC3)N3CCC[C@@H](C)C3)cc2c1 [compound 49] | 39.5 µM | 1.15 | 45.5 µM |  |  | 
Cc1ccc2[nH]c(=O)c([C@@H](c3nnnn3C3CCCC3)N(CCc3ccccc3)Cc3ccccc3)cc2c1 [compound 16] | 13.3 µM | 1.46 | 19.7 µM |  |  | 
Cc1cccc2cc(C(c3nnnn3C3CCCC3)N3CCCC4(CCCCC4)C3)c(=O)[nH]c12 (stereo not shown) [compound 22] |  |  | 21.1 µM | 1.34 | 15.8 µM | 
